{"source": "patent EP4484428A1", "about": "“CUCURBITURIL DERIVATIVES FOR RADIOLABELING, PROCESSES OF PRODUCTION AND USES THEREOF” (Université de Bourgogne, priority 2023, dated 2025)", "origin": "cited, not measured here", "system": "(strept)avidin", "settings": "biotin-(strept)avidin pair, association constant", "data": [{"smiles": "O=C(O)CCCC[C@@H]1SC[C@@H]2NC(=O)N[C@@H]21", "note": "[biotin]", "values": [{"measurement": "affinity (K)", "value": "10^15 M^-1"}]}]}
